Calls of active or inactive are those of the source. The rule behind the calls is not given here.
How the values were obtained:
[1] = tested on: NCI-H1299; assay: Inhibition of cell invasion in human H1299 cells at 1 to 3 uM after 24 hrs by Boyden's chamber transwell invasion assay; format: functional, cell-based
[2] = tested on: NCI-H1299; assay: Antimigratory activity in human H1299 cells at 1 to 6 uM incubated for 24 hrs by wound healing assay; format: functional, cell-based
[3] = tested on: NCI-H1299; assay: Inhibition of MMP9 mRNA expression in human H1299 cells at 3 uM after 48 hrs by RT-PCR analysis; format: functional, cell-based
[4] = biological target: c-Jun N-terminal kinase, JNK (Homo sapiens) (UniProt P45983+P53779+P45984); assay: Inhibition of JNK phosphorylation in human A549 cells at 3 to 9 uM after 24 hrs by Western blot analysis; format: cell-based
[5] = biological target: Matrix metalloproteinase-9 (Homo sapiens) (UniProt P14780); assay: Inhibition of MMP9 activity in human H1299 cells at 3 uM after 48 hrs by gelatin zymography; format: cell-based
Sequence of Matrix metalloproteinase-9 (Homo sapiens) (P14780 whole entry): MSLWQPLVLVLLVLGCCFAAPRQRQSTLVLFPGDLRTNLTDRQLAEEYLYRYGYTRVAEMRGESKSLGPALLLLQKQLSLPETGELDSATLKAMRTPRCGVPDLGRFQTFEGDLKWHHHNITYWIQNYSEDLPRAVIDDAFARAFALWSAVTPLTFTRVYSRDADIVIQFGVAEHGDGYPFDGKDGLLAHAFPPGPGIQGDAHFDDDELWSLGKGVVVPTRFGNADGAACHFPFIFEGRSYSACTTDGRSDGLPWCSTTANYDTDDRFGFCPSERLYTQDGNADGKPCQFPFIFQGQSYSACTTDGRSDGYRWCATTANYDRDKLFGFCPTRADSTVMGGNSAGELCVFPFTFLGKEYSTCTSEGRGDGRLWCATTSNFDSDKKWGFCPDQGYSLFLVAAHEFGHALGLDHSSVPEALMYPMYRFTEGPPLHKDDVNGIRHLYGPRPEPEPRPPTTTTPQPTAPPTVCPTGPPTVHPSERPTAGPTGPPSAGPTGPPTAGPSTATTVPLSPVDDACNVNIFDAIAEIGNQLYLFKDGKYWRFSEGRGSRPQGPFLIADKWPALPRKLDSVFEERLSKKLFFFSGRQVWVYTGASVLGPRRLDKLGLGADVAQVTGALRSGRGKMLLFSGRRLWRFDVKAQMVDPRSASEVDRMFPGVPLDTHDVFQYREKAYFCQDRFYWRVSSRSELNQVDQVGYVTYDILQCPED

[6] = biological target: Focal adhesion kinase 1 (Homo sapiens) (UniProt Q05397); assay: Inhibition of FAK phosphorylation in human A549 cells at 3 to 9 uM after 24 hrs by Western blot analysis; format: cell-based
Sequence of Focal adhesion kinase 1 (Homo sapiens) (Q05397 2-1052 limits assumed): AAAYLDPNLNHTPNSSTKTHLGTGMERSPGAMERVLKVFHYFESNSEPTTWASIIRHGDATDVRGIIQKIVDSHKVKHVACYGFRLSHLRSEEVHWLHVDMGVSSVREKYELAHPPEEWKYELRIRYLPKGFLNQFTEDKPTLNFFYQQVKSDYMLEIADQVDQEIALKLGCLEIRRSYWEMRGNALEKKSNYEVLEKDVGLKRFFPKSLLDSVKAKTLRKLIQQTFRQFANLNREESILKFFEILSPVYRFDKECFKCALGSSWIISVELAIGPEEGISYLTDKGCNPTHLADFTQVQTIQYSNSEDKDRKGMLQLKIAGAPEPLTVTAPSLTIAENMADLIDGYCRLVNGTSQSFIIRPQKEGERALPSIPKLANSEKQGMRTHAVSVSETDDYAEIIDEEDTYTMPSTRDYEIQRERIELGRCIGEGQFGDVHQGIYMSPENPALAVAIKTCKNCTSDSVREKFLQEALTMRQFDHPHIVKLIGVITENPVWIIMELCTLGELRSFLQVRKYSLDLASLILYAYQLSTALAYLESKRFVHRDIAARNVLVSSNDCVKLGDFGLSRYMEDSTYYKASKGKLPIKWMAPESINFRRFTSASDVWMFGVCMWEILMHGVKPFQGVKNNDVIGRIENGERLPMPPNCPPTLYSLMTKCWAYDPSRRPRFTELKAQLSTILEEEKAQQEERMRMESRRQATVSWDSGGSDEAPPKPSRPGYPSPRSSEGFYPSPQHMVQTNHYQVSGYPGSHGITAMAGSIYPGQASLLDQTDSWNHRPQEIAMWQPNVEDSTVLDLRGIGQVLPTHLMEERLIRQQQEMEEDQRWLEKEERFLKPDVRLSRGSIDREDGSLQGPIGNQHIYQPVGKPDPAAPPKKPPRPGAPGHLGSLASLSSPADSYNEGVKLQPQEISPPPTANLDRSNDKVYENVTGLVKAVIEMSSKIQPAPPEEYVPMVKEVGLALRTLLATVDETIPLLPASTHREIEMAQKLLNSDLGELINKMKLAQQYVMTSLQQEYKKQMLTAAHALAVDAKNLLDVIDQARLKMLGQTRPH

[7] = tested on: A549; assay: Inhibition of MMP2 mRNA expression in human A549 cells at 3 uM after 48 hrs by RT-PCR analysis; format: functional, cell-based
[8] = biological target: 72 kDa type IV collagenase (Homo sapiens) (UniProt P08253); assay: Inhibition of MMP2 activity in human H1299 cells at 3 uM after 48 hrs by gelatin zymography; format: cell-based
Sequence of 72 kDa type IV collagenase (Homo sapiens) (P08253 110-660 limits assumed): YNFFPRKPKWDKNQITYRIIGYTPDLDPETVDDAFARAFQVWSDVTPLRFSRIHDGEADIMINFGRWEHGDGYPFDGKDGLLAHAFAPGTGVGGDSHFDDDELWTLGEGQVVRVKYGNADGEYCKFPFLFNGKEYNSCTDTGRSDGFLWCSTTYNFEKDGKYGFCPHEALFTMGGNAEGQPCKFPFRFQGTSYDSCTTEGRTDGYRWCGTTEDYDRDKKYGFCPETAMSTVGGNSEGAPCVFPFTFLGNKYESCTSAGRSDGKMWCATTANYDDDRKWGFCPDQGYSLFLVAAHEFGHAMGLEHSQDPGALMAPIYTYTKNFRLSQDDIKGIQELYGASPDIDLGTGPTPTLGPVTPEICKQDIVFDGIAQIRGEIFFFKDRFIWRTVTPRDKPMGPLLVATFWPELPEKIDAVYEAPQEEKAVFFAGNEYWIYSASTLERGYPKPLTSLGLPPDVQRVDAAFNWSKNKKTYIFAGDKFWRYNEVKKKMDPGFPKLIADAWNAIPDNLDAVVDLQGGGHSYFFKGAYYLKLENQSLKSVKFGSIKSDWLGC

[9] = tested on: A549; assay: Cell cycle arrest in human A549 cells assessed as accumulation at G0/G1 phase at 9 uM after 24 hrs by flow cytometry (reference value: 66.5%); format: functional
[10] = tested on: A549; assay: Cell cycle arrest in human A549 cells assessed as accumulation at G2/M phase at 9 uM after 24 hrs by flow cytometry (reference value: 15.1%); format: functional
[11] = biological target: MAP kinase p38 (Homo sapiens) (UniProt O15264+Q15759+Q16539+P53778); assay: Inhibition of p38 phosphorylation in human A549 cells at 3 to 9 uM after 24 hrs by Western blot analysis; format: cell-based
[12] = tested on: NCI-H1299; assay: Inhibition of MMP2 mRNA expression in human H1299 cells at 3 uM after 48 hrs by RT-PCR analysis; format: functional, cell-based
[13] = tested on: A549; assay: Induction of apoptosis in human A549 cells assessed as late apoptotic cells at 9 uM after 24 hrs by flow cytometry (reference value: 7.9%); format: functional
[14] = tested on: A549; assay: Antimigratory activity in human A549 cells incubated for 24 hrs by wound healing assay; format: functional, cell-based
[15] = tested on: A549; assay: Induction of apoptosis in human A549 cells assessed as early apoptotic cells at 9 uM after 24 hrs by flow cytometry (reference value: 15.45%); format: functional
[16] = biological target: Mitogen-activated protein kinase; ERK1/ERK2 (Homo sapiens) (UniProt P27361+P28482); assay: Inhibition of ERK1/2 phosphorylation in human A549 cells after 24 hrs by Western blot analysis; format: cell-based
Sequence of Mitogen-activated protein kinase; ERK1/ERK2 (Homo sapiens) (P27361 whole entry, looked up): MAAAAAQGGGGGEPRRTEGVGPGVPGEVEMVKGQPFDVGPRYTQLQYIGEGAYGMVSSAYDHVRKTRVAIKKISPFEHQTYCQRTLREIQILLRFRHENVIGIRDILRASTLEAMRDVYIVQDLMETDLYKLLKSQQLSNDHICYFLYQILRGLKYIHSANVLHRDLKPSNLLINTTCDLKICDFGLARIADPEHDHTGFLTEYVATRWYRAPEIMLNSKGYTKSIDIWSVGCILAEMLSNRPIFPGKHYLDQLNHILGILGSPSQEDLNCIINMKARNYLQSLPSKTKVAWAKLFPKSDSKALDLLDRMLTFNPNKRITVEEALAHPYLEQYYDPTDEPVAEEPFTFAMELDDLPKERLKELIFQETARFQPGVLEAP
Sequence of Mitogen-activated protein kinase; ERK1/ERK2 (Homo sapiens) (P28482 whole entry, looked up): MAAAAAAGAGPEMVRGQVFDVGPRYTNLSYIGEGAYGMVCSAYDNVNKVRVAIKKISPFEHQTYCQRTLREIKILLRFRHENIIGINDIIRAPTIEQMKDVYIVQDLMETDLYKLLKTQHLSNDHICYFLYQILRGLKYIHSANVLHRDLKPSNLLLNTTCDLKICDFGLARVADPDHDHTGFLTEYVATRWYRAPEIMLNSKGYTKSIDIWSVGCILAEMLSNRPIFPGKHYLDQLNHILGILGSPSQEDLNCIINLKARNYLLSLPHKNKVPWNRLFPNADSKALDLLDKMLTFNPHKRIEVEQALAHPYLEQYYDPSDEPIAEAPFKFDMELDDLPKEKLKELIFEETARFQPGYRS

[17] = biological target: Proto-oncogene tyrosine-protein kinase Src (Homo sapiens) (UniProt P12931); assay: Inhibition of c-Src phosphorylation in human A549 cells at 3 to 9 uM after 24 hrs by Western blot analysis; format: cell-based
Sequence of Proto-oncogene tyrosine-protein kinase Src (Homo sapiens) (P12931 2-536 limits assumed): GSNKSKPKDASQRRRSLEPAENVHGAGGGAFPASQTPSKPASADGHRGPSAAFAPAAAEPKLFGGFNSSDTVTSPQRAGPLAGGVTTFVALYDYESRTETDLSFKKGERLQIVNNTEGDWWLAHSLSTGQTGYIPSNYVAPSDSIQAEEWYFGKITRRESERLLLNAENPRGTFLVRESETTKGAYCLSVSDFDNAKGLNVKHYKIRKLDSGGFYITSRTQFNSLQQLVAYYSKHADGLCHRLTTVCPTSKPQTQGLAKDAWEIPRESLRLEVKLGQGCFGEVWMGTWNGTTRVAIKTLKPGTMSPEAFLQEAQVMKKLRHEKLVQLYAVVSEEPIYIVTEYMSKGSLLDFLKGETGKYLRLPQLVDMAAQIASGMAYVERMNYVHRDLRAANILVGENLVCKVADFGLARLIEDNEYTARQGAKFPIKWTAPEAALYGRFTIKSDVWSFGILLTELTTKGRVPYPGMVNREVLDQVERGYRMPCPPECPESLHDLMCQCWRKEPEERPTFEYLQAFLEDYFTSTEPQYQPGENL

[18] = tested on: A549; assay: Induction of apoptosis in human A549 cells assessed as dead cells at 9 uM after 24 hrs by flow cytometry (reference value: 0%); format: functional
[19] = biological target: 72 kDa type IV collagenase (Homo sapiens) (UniProt P08253); assay: Inhibition of MMP2 activity in human A549 cells at 3 to 9 uM after 48 hrs by gelatin zymography; format: cell-based
[20] = tested on: A549; assay: Cytotoxicity against human A549 cells assessed as cell survival up to 10 uM incubated for 24 hrs by CCK8 assay; format: functional
[21] = tested on: A549; assay: Inhibition of cell invasion in human A549 cells at 1 to 3 uM after 24 hrs by Boyden's chamber transwell invasion assay; format: functional, cell-based
[22] = tested on: A549; assay: Cell cycle arrest in human A549 cells assessed as accumulation at S phase at 9 uM after 24 hrs by flow cytometry (reference value: 18.3%); format: functional
[23] = tested on: A549; assay: Induction of apoptosis in human A549 cells assessed as live cells at 9 uM after 24 hrs by flow cytometry (reference value: 76.65%); format: functional
[24] = tested on: A549; assay: Inhibition of MMP9 mRNA expression in human A549 cells at 3 uM after 48 hrs by RT-PCR analysis; format: functional, cell-based
[25] = biological target: T1, Catenin beta-1 (Homo sapiens) (UniProt P35222); assay: Inhibition of beta-catenin signalling in human A549 cells assessed as reduction in beta-catenin level at 3 to 9 uM after 24 hrs by Western blot analysis; format: cell-based
T1 sequence (whole entry): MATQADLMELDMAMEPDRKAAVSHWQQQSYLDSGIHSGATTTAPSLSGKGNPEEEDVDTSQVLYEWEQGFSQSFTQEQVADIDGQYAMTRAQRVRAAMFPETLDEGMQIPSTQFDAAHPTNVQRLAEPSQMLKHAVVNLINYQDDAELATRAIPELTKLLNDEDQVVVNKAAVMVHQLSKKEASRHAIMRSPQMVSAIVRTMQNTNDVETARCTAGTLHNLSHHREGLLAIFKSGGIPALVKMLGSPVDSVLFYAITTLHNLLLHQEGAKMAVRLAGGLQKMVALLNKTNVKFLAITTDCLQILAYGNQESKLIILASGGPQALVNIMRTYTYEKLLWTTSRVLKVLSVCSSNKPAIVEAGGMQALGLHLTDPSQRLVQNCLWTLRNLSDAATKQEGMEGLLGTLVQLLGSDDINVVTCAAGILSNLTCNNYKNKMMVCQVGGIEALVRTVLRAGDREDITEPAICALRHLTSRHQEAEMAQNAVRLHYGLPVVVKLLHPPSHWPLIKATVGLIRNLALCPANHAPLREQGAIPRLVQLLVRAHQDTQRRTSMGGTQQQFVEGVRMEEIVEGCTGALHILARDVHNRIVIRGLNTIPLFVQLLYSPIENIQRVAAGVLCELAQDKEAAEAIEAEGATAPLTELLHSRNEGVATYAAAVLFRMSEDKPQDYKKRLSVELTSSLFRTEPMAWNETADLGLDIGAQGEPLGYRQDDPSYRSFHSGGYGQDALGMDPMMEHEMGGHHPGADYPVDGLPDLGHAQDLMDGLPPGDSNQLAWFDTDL

[26] = biological target: Matrix metalloproteinase-9 (Homo sapiens) (UniProt P14780); assay: Inhibition of MMP9 activity in human A549 cells at 3 to 9 uM after 48 hrs by gelatin zymography; format: cell-based

Q: Which results are given for `C[C@H]1CC[C@@]2(OC1)O[C@H]1C[C@H]3[C@@H]4CC[C@@H]5C[C@@H](O[C@@H]6O[C@H](CO)[C@@H](O)[C@H](O)[C@H]6O[C@@H]6O[C@H](CO)[C@@H](O)[C@H](O)[C@H]6O)CC[C@]5(C)[C@H]4CC[C@]3(C)[C@H]1[C@@H]2C`?
A: inhibition [1]: Active; inhibition [2]: Active; inhibition [3]: Active; inhibition [4]: inactive; inhibition [5]: Active; inhibition [6]: Active; inhibition [7]: Active; inhibition [8]: Active; Activity [9]: 74.8%; Activity [10]: 14%; inhibition [11]: inactive; inhibition [12]: Active; Activity [13]: 16.6%; inhibition [14]: Dose-dependent effect; Activity [15]: 29.25%; inhibition [16]: Dose-dependent effect; inhibition [17]: Active; Activity [18]: 0%; inhibition [19]: Active; Survival [20]: <50%; inhibition [21]: Active; Activity [22]: 11.2%; Activity [23]: 54.15%; inhibition [24]: Active; inhibition [25]: Active; inhibition [26]: Active
